Test results: US10160762B2, “6-alkyl dihydropyrazolopyrimidinone compounds as PDE2 inhibitors” (Merck Sharp & Dohme Corp., priority 2015, dated 2018)

biological target: T1, human PDE2A1 (Homo sapiens, UniProt O00408); assay: IMAP FP PDE assay, human PDE2A1; assay type: biochemical; conditions: Lab B; read-out: Human PDE2 Ki (nM) Lab B
T1 construct: GST; purchased BPS Bioscience (San Diego, Calif.) 60020; host or cells: insect cells
Outline: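 GST-tagged human PDE2A1 from insect cells; substrate 50 nM FAM-cAMP containing 1000 nM cGMP in Tris pH 7.2/MgCl2/DTT buffer, enzyme giving 20% conversion. 60 min at room temperature, IMAP binding reagent, fluorescence polarization read. Apparent Ki from FP readings using apparent KM 10,000 nM; ten-point 3-fold titrations.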

T1 sequence (O00408 1-920 isoform O00408-2): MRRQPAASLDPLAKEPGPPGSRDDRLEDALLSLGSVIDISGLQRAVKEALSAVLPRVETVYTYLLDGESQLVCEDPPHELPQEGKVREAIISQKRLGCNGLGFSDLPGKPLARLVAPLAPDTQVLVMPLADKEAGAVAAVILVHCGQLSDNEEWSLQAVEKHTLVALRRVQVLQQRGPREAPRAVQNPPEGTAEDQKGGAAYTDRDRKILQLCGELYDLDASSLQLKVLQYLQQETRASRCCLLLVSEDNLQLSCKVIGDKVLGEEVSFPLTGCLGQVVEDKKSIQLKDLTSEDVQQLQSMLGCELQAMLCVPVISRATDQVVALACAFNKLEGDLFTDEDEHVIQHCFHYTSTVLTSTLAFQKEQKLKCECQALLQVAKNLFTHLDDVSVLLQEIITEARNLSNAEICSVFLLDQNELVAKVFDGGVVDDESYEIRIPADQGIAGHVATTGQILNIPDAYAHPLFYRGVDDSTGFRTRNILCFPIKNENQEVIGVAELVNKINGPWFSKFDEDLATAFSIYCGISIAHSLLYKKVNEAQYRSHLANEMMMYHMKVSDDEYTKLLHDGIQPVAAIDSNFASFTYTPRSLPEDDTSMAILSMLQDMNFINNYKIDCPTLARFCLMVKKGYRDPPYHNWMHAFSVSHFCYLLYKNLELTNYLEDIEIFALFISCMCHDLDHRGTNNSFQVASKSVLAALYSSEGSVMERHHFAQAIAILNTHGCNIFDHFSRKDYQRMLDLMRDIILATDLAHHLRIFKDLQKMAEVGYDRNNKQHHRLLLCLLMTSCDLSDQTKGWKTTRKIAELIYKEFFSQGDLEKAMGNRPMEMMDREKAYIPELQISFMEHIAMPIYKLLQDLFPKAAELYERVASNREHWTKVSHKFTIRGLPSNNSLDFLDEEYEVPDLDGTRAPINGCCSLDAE

SMILES | Ki
Cc1nc2c(c(C(F)F)nn2C(C)c2ccc(C(F)(F)F)cc2F)c(=O)[nH]1 (single isomer, unassigned) [Example 185, (R)- or (S)-3-(Difluoro-methyl)-1-(1-(2-fluoro-4-(trifluoro-methyl)phenyl)-ethyl)-6-methyl-1H-pyrazolo[3,4-d]pyrimidin-4(5H)-one] | 303 nM
Cc1nc2c(c(C(F)F)nn2C(C)c2ccc(C(F)(F)F)cc2F)c(=O)[nH]1 (single isomer, unassigned) [Example 186, (S)- or (R)-3-(Difluoro-methyl)-1-(1-(2-fluoro-4-(trifluoromethyl)phenyl)ethyl)-6-methyl-1H-pyrazolo[3,4-d]pyrimidin-4(5H)-one] | 0.63 nM
COCc1nc2c(c(C(F)F)nn2C(C)c2ccc(C(F)(F)F)cc2)c(=O)[nH]1 (single isomer, unassigned) [Example 187, (R)- or (S)-3-(Difluoromethyl)-6-(methoxymethyl)-1-{1-[4-(trifluoromethyl)phenyl]ethyl}-1,5-dihydro-4H-pyrazolo-[3,4-d]pyrimidin-4-one] | 231 nM
COCc1nc2c(c(C(F)F)nn2C(C)c2ccc(C(F)(F)F)cc2)c(=O)[nH]1 (single isomer, unassigned) [Example 188, (S)- or (R)-3-(Difluoro-methyl)-6-(methoxymethyl)-1-{1-[4-(trifluoromethyl)phenyl]ethyl}-1,5-dihydro-4H-pyrazolo-[3,4-d]pyrimidin-4-one] | 2.6 nM
CCc1nc2c(c(C(F)F)nn2C(C)c2ccc(C(F)(F)F)cc2)c(=O)[nH]1 (single isomer, unassigned) [Example 189, (R)- or (S)-3-(Difluoromethyl)-6-ethyl-1-(1-(4-(trifluoromethyl)phenyl)ethyl)-1,5-dihydro-4H-pyrazolo[3,4-d]pyrimidin-4-one] | 330 nM
CCc1nc2c(c(C(F)F)nn2C(C)c2ccc(C(F)(F)F)cc2)c(=O)[nH]1 (single isomer, unassigned) [Example 190, (S)- or (R)-3-(Difluoromethyl)-6-ethyl-1-(1-(4-(trifluoromethyl)-phenyl)ethyl)-1,5-dihydro-4H-pyrazolo[3,4-d]pyrimidin-4-one] | 2.7 nM
CC(c1ccc(C(F)(F)F)cc1)n1nc(C(F)F)c2c(=O)[nH]c(C3CC3)nc21 (single isomer, unassigned) [Example 191, (R)- or (S)-6-Cyclopropyl-3-(difluoromethyl)-1-(1-(4-(trifluoromethyl)phenyl)ethyl)-1,5-dihydro-4H-pyrazolo[3,4-d]pyrimidin-4-one] | 268 nM
CC(c1ccc(C(F)(F)F)cc1)n1nc(C(F)F)c2c(=O)[nH]c(C3CC3)nc21 (single isomer, unassigned) [Example 192, (S)- or (R)-6-Cyclopropyl-3-(difluoromethyl)-1-(1-(4-(trifluoromethyl)phenyl)ethyl)-1,5-dihydro-4H-pyrazolo[3,4-d]pyrimidin-4-one] | 3.4 nM
Cc1nc2c(c(C(F)F)nn2C(C)c2ccc(C(F)(F)F)nc2)c(=O)[nH]1 (single isomer, unassigned) [Example 194] | 14 nM
Cc1nc2c(c(C(F)F)nn2C(C)c2ccc(C(F)(F)F)nc2)c(=O)[nH]1 (single isomer, unassigned) [Example 195] | ~1670 nM
Cc1nc2c(c(CF)nn2C(C)c2ccc(CC(F)(F)F)cc2)c(=O)[nH]1 (single isomer, unassigned) [Example 210, (R)- or (S)-3-(Fluoromethyl)-6-methyl-1-(1-(4-(2,2,2-trifluoroethyl)phenyl)ethyl)-1H-pyrazolo[3,4-d]pyrimidin-4(5H)-one] | 75 nM
Cc1nc2c(c(CF)nn2C(c2ccc(OC(F)(F)F)cc2)C2CC2)c(=O)[nH]1 (single isomer, unassigned) [Example 225, (S)- or (R)-1-(Cyclopropyl(4-(trifluoromethoxy)phenyl)methyl)-3-(fluoromethyl)-6-methyl-1,5-dihydro-4H-pyrazolo[3,4-d]pyrimidin-4-one] | 4.6 nM
Cc1nc2c(c(CF)nn2C(c2ccc(C(F)(F)F)c(F)c2)C2CC2)c(=O)[nH]1 (single isomer, unassigned) [Example 227, (S)- or (R)-1-(Cyclopropyl(3-fluoro-4-(trifluoromethyl)phenyl)methyl)-3-(fluoromethyl)-6-methyl-1,5-dihydro-4H-pyrazolo[3,4-d]pyrimidin-4-one] | 32 nM
Cc1nc2c(c(CF)nn2C(c2ccc(OC(F)(F)F)c(F)c2)C2CC2)c(=O)[nH]1 (single isomer, unassigned) [Example 229, (S)- or (R)-1-(Cyclopropyl(3-fluoro-4-(trifluoromethoxy)phenyl)methyl)-3-(fluoromethyl)-6-methyl-1,5-dihydro-4H-pyrazolo[3,4-d]pyrimidin-4-one] | 2 nM
Cc1nc2c(c(-c3ccn[nH]3)nn2C(C)c2ccc(C(F)(F)F)cc2)c(=O)[nH]1 (single isomer, unassigned) [Example 235] | 25 nM
Cc1nc2c(c(C(N)=O)nn2C(C)c2ccc(C(F)(F)F)cc2)c(=O)[nH]1 (single isomer, unassigned) [Example 256] | 86 nM
Cc1nc2c(c(C(N)=O)nn2C(C)c2ccc(C(F)(F)F)cc2)c(=O)[nH]1 (single isomer, unassigned) [Example 257] | 115 nM
CNC(=O)c1nn(C(C)c2ccc(C(F)(F)F)cc2)c2nc(C)[nH]c(=O)c12 (single isomer, unassigned) [Example 264] | 233 nM
CNC(=O)c1nn(C(C)c2ccc(C(F)(F)F)cc2)c2nc(C)[nH]c(=O)c12 (single isomer, unassigned) [Example 265] | 375 nM
Cc1nc2c(c(C(=O)N(C)C)nn2C(C)c2ccc(C(F)(F)F)cc2)c(=O)[nH]1 (single isomer, unassigned) [Example 266, (R)- or (S)-N,N,6-Trimethyl-4-oxo-1-(1-(4-(trifluoromethyl)phenyl)ethyl)-4,5-dihydro-1H-pyrazolo[3,4-d]pyrimidine-3-carboxamide] | 654 nM
Cc1nc2c(c(C(=O)N(C)C)nn2C(C)c2ccc(C(F)(F)F)cc2)c(=O)[nH]1 (single isomer, unassigned) [Example 267, (S)- or (R)-N,N,6-Trimethyl-4-oxo-1-(1-(4-(trifluoromethyl)phenyl)ethyl)-4,5-dihydro-1H-pyrazolo[3,4-d]pyrimidine-3-carboxamide] | > 2960 nM

More lines, now with the values ahead:

Ki | SMILES
76 nM | Cc1nc2c(c(-c3ccn[nH]3)nn2C(C)c2ccc(C(F)(F)F)cc2)c(=O)[nH]1 (single isomer, unassigned) [Example 236]
2.5 nM | Cc1nc2c(c(-c3cn[nH]c3)nn2C(C)c2ccc(C(F)(F)F)cc2)c(=O)[nH]1 (single isomer, unassigned) [Example 237]
48 nM | Cc1nc2c(c(-c3cn[nH]c3)nn2C(C)c2ccc(C(F)(F)F)cc2)c(=O)[nH]1 (single isomer, unassigned) [Example 238]
~2820 nM | Cc1nc2c(c(CC(O)C(F)(F)F)nn2C(C)c2ccc(C(F)(F)F)cc2)c(=O)[nH]1 (single isomer, unassigned) [Example 239]
434 nM | Cc1nc2c(c(CC(O)C(F)(F)F)nn2C(C)c2ccc(C(F)(F)F)cc2)c(=O)[nH]1 (single isomer, unassigned) [Example 240]
610 nM | Cc1nc2c(c(CC(O)C(F)(F)F)nn2C(C)c2ccc(C(F)(F)F)cc2)c(=O)[nH]1 (single isomer, unassigned) [Example 241]
434 nM | Cc1nc2c(c(CC(O)C(F)(F)F)nn2C(C)c2ccc(C(F)(F)F)cc2)c(=O)[nH]1 (single isomer, unassigned) [Example 242]
808 nM | Cc1nc2c(c(CC(C)O)nn2C(C)c2ccc(C(F)(F)F)cc2)c(=O)[nH]1 (single isomer, unassigned) [Example 243]
386 nM | Cc1nc2c(c(CC(C)O)nn2C(C)c2ccc(C(F)(F)F)cc2)c(=O)[nH]1 (single isomer, unassigned) [Example 244]
72 nM | Cc1nc2c(c(CC(C)O)nn2C(C)c2ccc(C(F)(F)F)cc2)c(=O)[nH]1 (single isomer, unassigned) [Example 245]
72 nM | Cc1nc2c(c(CC(C)O)nn2C(C)c2ccc(C(F)(F)F)cc2)c(=O)[nH]1 (single isomer, unassigned) [Example 246]
452 nM | Cc1nc2c(c(C(F)(F)CO)nn2C(C)c2ccc(C(F)(F)F)cc2)c(=O)[nH]1 (single isomer, unassigned) [Example 254]
~2120 nM | CC(=O)Nc1nn(C(C)c2ccc(C(F)(F)F)cc2)c2nc(C)[nH]c(=O)c12 (single isomer, unassigned) [Example 259]
54 nM | CC(=O)Nc1nn(C(C)c2ccc(C(F)(F)F)cc2)c2nc(C)[nH]c(=O)c12 (single isomer, unassigned) [Example 260]
395 nM | Cc1nc2c(c(-c3nnco3)nn2C(C)c2ccc(C(F)(F)F)cc2)c(=O)[nH]1 (single isomer, unassigned) [Example 262]
0.88 nM | Cc1nc2c(c(-c3nnco3)nn2C(C)c2ccc(C(F)(F)F)cc2)c(=O)[nH]1 (single isomer, unassigned) [Example 263]
311 nM | Cc1nc2c(c(C(=O)NCC(F)(F)F)nn2C(C)c2ccc(C(F)(F)F)cc2)c(=O)[nH]1 (single isomer, unassigned) [Example 268, (R)- or (S)-6-Methyl-4-oxo-N-(2,2,2-trifluoroethyl)-1-(1-(4-(trifluoromethyl)phenyl)ethyl)-4,5-dihydro-1H-pyrazolo[3,4-d]pyrimidine-3-carboxamide]
~1430 nM | Cc1nc2c(c(C(=O)NCC(F)(F)F)nn2C(C)c2ccc(C(F)(F)F)cc2)c(=O)[nH]1 (single isomer, unassigned) [Example 269, (S)- or (R)-6-Methyl-4-oxo-N-(2,2,2-trifluoroethyl)-1-(1-(4-(trifluoromethyl)phenyl)ethyl)-4,5-dihydro-1H-pyrazolo[3,4-d]pyrimidine-3-carboxamide]
